What was measured:
[1] = Relative bioavailability of parent compound 1 in plasma and brain after oral gavage in mice (Example 39); assay type: in vivo, Male CD1 mice; details: mouse brain samples 2, 4 and 7 hrs post-dose, LC/MS/MS
Method: Animals: Male CD1 mice (Charles River) weighing about 25 g—with free access to food and water.
Dose Groups: The compounds of this invention were administered to the test animals at a dose, which is molar equivalent to 10 mg/kg of the parent compound 1, ((R)-3-amino-2-hydroxy-propyl)-cyclohexylmethyl-phosphinic acid. Each of the test compounds was formulated at this dose level to yield a dose volume of 10 mL/kg and administered by oral gavage to a group of three mice per time point in each study group.
Formulations: The compounds of this invention were dissolved in vehicle of 0.2% Tween 80 and 0.5% methylcellulose (MC) at a concentration of about 1 mg/mL.
Samples: The blood samples (for plasma) were collected at the following time points: 5, 15 30 and 45 min […]; and 1, 2, 3, 4, 5, and 7 hrs post-dose. Brains were collected at 2, 4 and 7 hrs post-dose
Blood Handling: The blood samples were added to tubes containing 20 μL of a stock 10 mg/ml solution of sodium fluoride. The blood tubes were then stored in a refrigerator at approximately about 4° C. The volume of blood in each of these samples was about 0.4 mL. The samples were then centrifuged in a refrigerated centrifuge. […]
Bioanalysis: All plasma and brain samples were then analyzed for concentrations of the test compound as well as the parent compound 1, ((R)-3-amino-2-hydroxy-propyl)-cyclohexylmethyl-phosphinic acid by LC/MS/MS. […]

[2] = test system: Male Wistar rats; assay: Chronic Mild Stress Model (CMS), sucrose consumption; assay type: in vivo, rat; details: 3 and 30 mg/kg orally, daily for five weeks; imipramine 10 mg/kg ip
Method: The following CMS study is performed using the parent compound 1 (hereafter “compound 1”) in comparison to known anti-depressant compound imipramine.
Male Wistar rats are brought into the laboratory two months before the start of the experiment at which time they weighed approximately 300 grams. Except as described below, the animals are singly housed, with food and water freely available, and maintained on a 12 hour light/dark cycle (lights on at 8 AM) at a temperature of about 22° C.
The animals are first trained to consume a 1% sucrose solution; training consists of eight 1 hour baseline tests in which sucrose is presented, in the home cage, following 14 hours food and water deprivation; intake is measured by weighing pre-weighed bottles containing the sucrose solution at the end of the test. Subsequently, sucrose consumption is monitored, under similar conditions, at weekly intervals throughout the whole experiment.
On the basis of their sucrose intakes in the final baseline test, the animals are divided into two matched groups. One group of animals is subjected to a chronic mild stress procedure for a period of 9 consecutive weeks. […]
Results are analyzed by multiple analysis of variance, followed by Fisher's LSD test for post hoc comparisons of means.

In the case of `NC[C@@H](O)CP(=O)(O)CC1CCCCC1` [compound 1, ((R)-3-amino-2-hydroxy-propyl)-cyclohexylmethyl-phosphinic acid], the “concentration of the parent compound 1 in brain” value [1] is reported as “proportional to the concentration of the parent compound in plasma” and the “activity in CMS (sucrose intake) compared with imipramine” value [2] is reported as “equal to that of imipramine”.

From patent US8828974B2, “Substituted propane phosphinic acid derivatives” (Aventis Pharmaceuticals Inc., priority 2004, dated 2014)
